Earlier results, collected in publication doi:10.1101/435081v1 (bioRxiv, 2018).

System: Lb. sakei NCDO2714
Settings: single peptide alone

Row | Substance | Growth inhibition when alone
1 | acidocin LF221A [Acd221A] | inhibited the growth
2 | acidocin LF221B [Acd221B] | inhibited the growth
